Consider five compounds from article PMC3767973 (Chembiochem : a European journal of chemical biology, 2013).

One assay has as its target T1, E. coli DXP synthase (Escherichia coli, UniProt P77488).
T1 sequence (P77488 1-620): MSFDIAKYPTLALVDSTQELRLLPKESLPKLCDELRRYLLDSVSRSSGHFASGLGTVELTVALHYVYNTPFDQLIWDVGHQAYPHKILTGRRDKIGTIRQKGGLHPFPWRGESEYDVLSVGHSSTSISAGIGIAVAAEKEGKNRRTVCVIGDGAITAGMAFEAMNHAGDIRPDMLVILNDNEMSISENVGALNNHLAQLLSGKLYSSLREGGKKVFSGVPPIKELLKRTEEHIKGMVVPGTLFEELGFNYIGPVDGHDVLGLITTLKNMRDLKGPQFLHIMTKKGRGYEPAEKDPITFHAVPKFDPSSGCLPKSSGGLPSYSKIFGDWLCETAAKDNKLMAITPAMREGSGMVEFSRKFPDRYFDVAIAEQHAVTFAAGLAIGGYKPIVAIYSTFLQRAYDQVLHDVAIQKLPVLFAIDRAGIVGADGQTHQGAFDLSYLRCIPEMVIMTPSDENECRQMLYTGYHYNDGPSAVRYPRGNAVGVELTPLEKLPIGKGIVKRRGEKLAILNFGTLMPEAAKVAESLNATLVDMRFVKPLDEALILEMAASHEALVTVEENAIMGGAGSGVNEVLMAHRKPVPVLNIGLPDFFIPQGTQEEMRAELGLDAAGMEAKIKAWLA
It counts as biochemical. As to conditions: 100 mM HEPES pH 8.0, 10-20 mM pyruvate, 10% DMSO, 37 °C; average ± SEM, triplicate.

In a further assay the target is T2, IspC (Escherichia coli, UniProt P45568).
T2 sequence (P45568 1-398): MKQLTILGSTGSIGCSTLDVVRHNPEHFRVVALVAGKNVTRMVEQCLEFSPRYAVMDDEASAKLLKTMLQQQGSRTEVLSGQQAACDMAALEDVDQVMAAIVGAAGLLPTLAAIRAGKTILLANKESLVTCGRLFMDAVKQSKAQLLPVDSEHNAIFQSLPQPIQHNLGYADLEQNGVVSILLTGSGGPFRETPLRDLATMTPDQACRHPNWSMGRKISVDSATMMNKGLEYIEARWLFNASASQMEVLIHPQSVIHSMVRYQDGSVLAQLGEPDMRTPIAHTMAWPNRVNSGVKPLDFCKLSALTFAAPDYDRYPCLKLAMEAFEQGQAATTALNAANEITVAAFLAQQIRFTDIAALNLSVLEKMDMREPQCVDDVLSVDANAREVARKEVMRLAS
Kind of assay: Inhibition of the coupling enzyme IspC by BnAP. Type of assay: biochemical. As to conditions: up to 1.5 mM.

In a further assay the test system is Porcine PDH E1 subunit. Kind of assay: Kinetic parameters of nitroso substrates with PDH. It counts as biochemical. As to conditions: read-out: PDH Km; 100 mM HEPES pH 8.0, 10-20 mM pyruvate, 10% DMSO, 37 °C; average ± SEM, triplicate.
Assay [1] addresses T3, DXP synthase (Escherichia coli, UniProt P77488).
T3 sequence (P77488 1-620): T1 sequence (P77488 1-620)
In words: Aromatic aldehydes as DXP synthase acceptor substrates. It counts as biochemical.

The next assay deals with yeast TK. As to conditions: cited from earlier work.
In assay [2] the target is DXP synthase (Escherichia coli, UniProt P77488). As to conditions: 0.5-5 mM nitroso substrate, 10-20 mM pyruvate, 37 °C, HPLC.

Consider `O=C[C@H](O)COP(=O)(O)O` [D-GAP, D-glyceraldehyde 3-phosphate, reference compound], for which, at E. coli DXP synthase, the catalytic constant (kcat) was 1.7 ± 0.12 s⁻¹.
Take `CC(=O)P(=O)(O)OCc1ccccc1` [BnAP, benzylacetylphosphonate]: the “Inhibition of the coupling enzyme (IspC)” value at IspC is listed as “not observed”.
`O=Nc1ccccc1` [Compound 1, nitrosobenzene]: the Michaelis-Menten constant (Km) in the assay with Porcine PDH E1 subunit was determined as 350 ± 30 µM. Besides, the kcat at E. coli DXP synthase is 2.92 ± 0.317 s⁻¹.
On to `O=Cc1c(O)cc([N+](=O)[O-])cc1[N+](=O)[O-]` [2-Hydroxy-4,6-dinitrobenzaldehyde], for which, on DXP synthase [1] (aromatic aldehyde as acceptor substrate), the kcat stood at 0.00583 ± 0.00083 s⁻¹. Also, the “Km relative to the natural substrate D-GAP” value on DXP synthase [1] (fold higher than D-GAP) was ~ 18 fold.
Take `CN(C)c1ccc(N=O)cc1` [Compound 4]: the Km in the assay with Porcine PDH E1 subunit was 408 ± 60 µM. For the same compound, at E. coli DXP synthase, the Michaelis constant (Km) amounted to 54 ± 13 µM and the turnover number (kcat) was 0.015 ± 0.0017 s⁻¹. Also, in the assay with yeast TK, the “Substrate for yeast TK” value is given as “not a substrate”. Besides, at DXP synthase [2], the “Substrate for DXP synthase (turnover)” value is “is a substrate”.
